For experiment [1], the target named is T1, KDM4D (Homo sapiens, UniProt Q6B0I6).
T1 construct: catalytic core, residues 1-342 (11-342 visible in crystals); pQTEV N-terminal His6 tag removed by TEV protease; E. coli
T1 sequence (Q6B0I6 1-342): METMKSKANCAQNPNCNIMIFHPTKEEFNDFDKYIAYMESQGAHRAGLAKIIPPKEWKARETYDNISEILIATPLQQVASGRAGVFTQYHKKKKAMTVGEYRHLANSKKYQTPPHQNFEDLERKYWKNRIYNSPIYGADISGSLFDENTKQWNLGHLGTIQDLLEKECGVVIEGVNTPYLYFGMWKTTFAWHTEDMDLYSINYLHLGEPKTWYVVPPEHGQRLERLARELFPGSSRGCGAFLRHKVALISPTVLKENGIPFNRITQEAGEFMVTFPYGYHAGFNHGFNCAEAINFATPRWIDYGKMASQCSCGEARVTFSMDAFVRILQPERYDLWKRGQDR
The experiment is described as follows: isothermal titration calorimetry. Type of experiment: binding. The source says: isothermal titration calorimetry on KDM4D
In general terms: In ITC the heat of successive injections is recorded.

Experiment [2] deals with T2, KDM4A (Homo sapiens, UniProt O75164).
T2 construct: catalytic domain, residues 1-359; pQTEV N-terminal His6 tag removed by TEV protease
T2 sequence (O75164 1-359): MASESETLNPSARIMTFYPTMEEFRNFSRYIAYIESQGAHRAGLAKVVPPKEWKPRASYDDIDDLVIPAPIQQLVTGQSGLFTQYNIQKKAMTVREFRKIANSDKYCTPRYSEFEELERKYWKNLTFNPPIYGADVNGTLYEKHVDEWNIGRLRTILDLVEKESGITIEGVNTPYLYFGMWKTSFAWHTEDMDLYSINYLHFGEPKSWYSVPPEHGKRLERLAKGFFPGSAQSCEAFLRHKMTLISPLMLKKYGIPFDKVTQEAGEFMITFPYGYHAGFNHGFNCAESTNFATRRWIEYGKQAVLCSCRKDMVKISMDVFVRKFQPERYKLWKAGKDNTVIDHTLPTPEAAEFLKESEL
The experiment is described as follows: LANCE Ultra antibody-based demethylase assay. Type of experiment: biochemical. From the text:
LANCE Ultra antibody-based demethylase assay on KDM4A

The structures appear in SMILES notation.

Molecule `NNC(=O)Cc1nnn[nH]1` [compound 1] yielded a Kd in experiment [1] of 2.3 ± 0.9 µM.

As for `NNC(=O)c1ccc(-c2nn[nH]n2)cc1` [compound 6], in experiment [2], inhibition was half-maximal at 216 ± 33 µM (IC50).

Molecule `NNC(=O)c1cccc(-c2nn[nH]n2)c1` [compound 7] had an IC50 in experiment [2] of 195 ± 39 µM. The Kd in experiment [1] was 41 ± 15 µM.

Broadly, the Kd is the concentration at which binding is half-saturated. A high value points to lower affinity. One may read the IC50 as the concentration needed to halve the response being measured. A low value points to inhibition by little substance.
